Laboratory results: patent US7396525B2, “Care/makeup compositions comprising a 2-alkylideneaminooxyacetamide compound for stimulating the growth of the hair or eyelashes and/or slowing loss thereof” (L'Oreal, priority 2003, dated 2008)

Target: T1, PGF synthase (PGFS) (Homo sapiens, UniProt P42330)
T1 construct: made in house
T1 sequence (P42330 1-323): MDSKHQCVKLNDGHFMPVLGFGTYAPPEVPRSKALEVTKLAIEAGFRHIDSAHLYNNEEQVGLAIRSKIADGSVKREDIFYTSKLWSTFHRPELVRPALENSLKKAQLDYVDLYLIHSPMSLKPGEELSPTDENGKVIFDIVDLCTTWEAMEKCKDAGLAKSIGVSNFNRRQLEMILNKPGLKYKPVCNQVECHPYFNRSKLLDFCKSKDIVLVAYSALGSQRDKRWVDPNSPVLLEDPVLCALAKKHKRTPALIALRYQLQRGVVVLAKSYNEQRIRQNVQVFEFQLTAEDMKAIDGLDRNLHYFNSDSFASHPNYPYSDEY
Assay: Test on PGF synthase (spectrophotometric, 340 nm, 9,10-phenanthrenequinone/β-NADPH)
Assay type: biochemical
Method: The enzyme PGFS is obtained as disclosed in FR-A-02/05067, at a concentration of 0.5 mg/ml, in suspension in an appropriate medium, and is blocked at −80° C. For the requirements of the test, this suspension is defrosted and stored in ice.
Furthermore, a Tris 100 mM, pH=6.5, buffer comprising 20 μM of 9,10-phenanthrenequinone*(P2896, Sigma-Aldrich, L'isle D'Abeau Chesne, BP 701, 38297, Saint Quentin Fallavier) and 100 μM of β-NADPH (N1630, Sigma-Aldrich, L'isle D'Abeau Chesne, BP 701, 38297, Saint Quentin Fallavier) is prepared in a brown bottle (exclusion of light). *A mother solution assaying 1 mM is prepared in absolute ethanol and is brought to 40° C.; the bottle is placed in an ultrasonic bath to facilitate the dissolution of the product.
0.950 ml of this buffer (brought beforehand to 37° C.) is introduced into the cell of a spectrophotometer (Perkin-Elmer, Lambda 2) thermostatically controlled at 37° C., the wavelength of which for the measurement is adjusted to 340 nm. 0.05 ml of enzymatic suspension at 37° C. is introduced into the cell concomitantly with the recording (corresponding to a fall in optical density at 340 nm). The maximum rate of reaction is noted.

Compound: C/C(=N/OCC(=O)Nc1ccccc1)c1cccs1 [Compound 1, N-Phenyl-2({[(1Z)-1-(thien-2-yl)-ethylidene]amino}oxy)acetamide]
- IC50: 50 to 100 µM
